Measurements reported in publication PMC8963254, “Effects of Lysine N-ζ-Methylation in Ultrashort Tetrabasic Lipopeptides (UTBLPs) on the Potentiation of Rifampicin, Novobiocin, and Niclosamide in Gram-Negative Bacteria” (Antibiotics, 2022).
In brackets after ≈: the same amount, converted by molar mass. Several values for one entry are separate records, joined by “and”; a condition that tells them apart may be missing. Equal entries are not always repeated. Where two headings read alike, the source gives them in different places.

Key:
[1] = tested on: P. aeruginosa PA259-96196; assay: microbe, parasite or virus in culture; assay type: cell-based, Pseudomonas aeruginosa; details: Pseudomonas aeruginosa, PA25996196, 18 h; P. aeruginosa 259-96196; read-out: MICs of various antibiotics
Method: (§1) The in vitro antibacterial activity of the UTBLPs was assessed against wild-type and clinically isolated bacterial strains. To obtain the MIC of the compounds, the microbroth dilution susceptibility assay was performed according to the Clinical and Laboratory Standards Institute (CLSI, Wayne, PA, USA) guidelines and as previously described. Briefly, the compounds at varying concentrations were incubated with bacterial inoculum (5 × 10^5 CFU/mL final concentration) at 37 °C for 18 h. Growth in the form of turbidity was confirmed using an EMax Plus microplate reader (Molecular Devices, San Jose, CA, USA) at 590 nm.

[2] = tested on: P. aeruginosa PA262-101856; assay: microbe, parasite or virus in culture; assay type: cell-based, Pseudomonas aeruginosa; details: Pseudomonas aeruginosa, PA262101856, 18 h; P. aeruginosa 262-101856; read-out: MICs of various antibiotics
Method: as §1

E. coli 94393 [3] = assay: microbe, parasite or virus in culture; assay type: cell-based, Escherichia coli; details: Escherichia coli, 18 h; E. coli 94393 (mcr-1 +); read-out: MICs of various antibiotics
Method: as §1

E. coli 94474 [4] = assay: microbe, parasite or virus in culture; assay type: cell-based, Escherichia coli; details: Escherichia coli, 18 h; E. coli 94474 (mcr-1 +); read-out: MICs of various antibiotics
Method: as §1

E. cloacae 118564 [5] = assay: microbe, parasite or virus in culture; assay type: cell-based, Enterobacter cloacae; details: Enterobacter cloacae, 18 h; E. cloacae 118564; read-out: MICs of various antibiotics
Method: as §1

K. pneumoniae 113250 [6] = assay: microbe, parasite or virus in culture; assay type: cell-based, Klebsiella pneumoniae; details: Klebsiella pneumoniae, 18 h; K. pneumoniae 113250; read-out: MICs of various antibiotics
Method: as §1

A. baumannii AB027 [7] = assay: microbe, parasite or virus in culture; assay type: cell-based, Acinetobacter baumannii; details: Acinetobacter baumannii, 18 h; A. baumannii AB027; read-out: MICs of various antibiotics
Method: as §1

P. aeruginosa PAO1 = assay type: cell-based, Pseudomonas aeruginosa
Method: (§2) The synergy of the UTBLPs with various antibiotics was assessed using checkerboard assay as previously described. Briefly, the combination of antibiotic and OMP at varying concentrations were incubated with bacterial inoculum (5 × 10^5 CFU/mL final concentration) at 37 °C for 18 h. Growth in the form of turbidity was confirmed using an EMax Plus microplate reader (Molecular Devices, Union City, CA, USA) at 590 nm. Fractional inhibitory concentration index (FICI) was used to evaluate the interaction between the antibiotic and the OMP. FICI is the sum of the FIC of the antibiotic and the FIC of the OMP. The FIC value is calculated by dividing the MIC of the agents in combination by the MIC of the agent alone. FICI ≤ 0.5 is synergistic, 0.5 < x ≤ 4 is additive, and >4 is antagonistic.

A. baumannii ATCC 17978 = assay type: cell-based, Acinetobacter baumannii
Method: as §2

MRSA ATCC 33592 = assay type: cell-based, Staphylococcus aureus; details: chloramphenicol alone
Method: as §2

S. aureus ATCC 29213 = assay type: cell-based, Staphylococcus aureus; details: chloramphenicol alone
Method: as §2

MRSE 61589 = assay type: cell-based, Staphylococcus epidermidis; details: chloramphenicol alone
Method: as §2

MSSE 81388 = assay type: cell-based, Staphylococcus epidermidis; details: chloramphenicol alone
Method: as §2

E. faecalis ATCC 29212 = assay type: cell-based, Enterococcus faecalis; details: chloramphenicol alone
Method: as §2

E. faecium ATCC 27270 = assay type: cell-based, Enterococcus faecium; details: chloramphenicol alone
Method: as §2

E. coli ATCC 25922 = assay type: cell-based, Escherichia coli
Method: as §2

[8] = tested on: P. aeruginosa PA259-96196; assay type: cell-based, Pseudomonas aeruginosa
Method: as §2

[9] = tested on: P. aeruginosa PA262-101856; assay type: cell-based, Pseudomonas aeruginosa
Method: as §2

A. baumannii 92247 = assay type: cell-based, Acinetobacter baumannii
Method: as §2

A. baumannii AB027 [10] = assay type: cell-based, Acinetobacter baumannii
Method: as §2

E. coli 94393 [11] = assay type: cell-based, Escherichia coli
Method: as §2

E. coli 94474 [12] = assay type: cell-based, Escherichia coli
Method: as §2

E. cloacae 118564 [13] = assay type: cell-based, Enterobacter cloacae
Method: as §2

K. pneumoniae 113250 [14] = assay type: cell-based, Klebsiella pneumoniae; details: rifampicin alone
Method: as §2

Structure (SMILES) | MIC [1] [mg/L] | MIC [2] [mg/L] | MIC (E. coli 94393 [3]) [mg/L] | MIC (E. coli 94474 [4]) [mg/L] | MIC (K. pneumoniae 113250 [6]) [mg/L] | MIC (A. baumannii AB027 [7]) [mg/L] | further results
C[C@H]1[C@H](NC(=O)/C(=N\OC(C)(C)C(=O)O)c2csc(N)n2)C(=O)N1S(=O)(=O)O [AZT, aztreonam] | 32 (≈ 73.5 µM) | 32 (≈ 73.5 µM) | ≤ 0.12 | ≤ 0.12 | ≤ 0.12 |  | MIC (E. cloacae 118564 [5]): ≤ 0.12 mg/L
CC(C)(O/N=C(\C(=O)N[C@@H]1C(=O)N2C(C(=O)[O-])=C(C[n+]3ccccc3)CS[C@H]12)c1csc(N)n1)C(=O)O [CAZ, ceftazidime] | 512 (≈ 937 µM) | 16 (≈ 29.3 µM) | ≤ 0.25 | 0.5 (≈ 0.915 µM) | 0.5 (≈ 0.915 µM) |  | MIC (E. cloacae 118564 [5]): 0.5 mg/L (≈ 0.915 µM)
CO/N=C(\C(=O)N[C@@H]1C(=O)N2C(C(=O)O)=C(CSc3nc(=O)c(=O)[nH]n3C)CS[C@H]12)c1csc(N)n1 [CTR, ceftriaxone] | > 64 | 64 (≈ 115 µM) |  |  |  |  | 
CO/N=C(\C(=O)N[C@@H]1C(=O)N2C(C(=O)O)=C(COC(C)=O)CS[C@H]12)c1csc(N)n1 [CTX, cefotaxime] | 2050 (≈ 4500 µM) | 128 (≈ 281 µM) |  |  |  | > 256 | 
O=C(N[C@H](CO)[C@H](O)c1ccc([N+](=O)[O-])cc1)C(Cl)Cl [Chloramphenicol, chloramphenicol, reference compound] | 1020 (≈ 3170 µM) | 2050 (≈ 6340 µM) | 4 (≈ 12.4 µM) | 4 (≈ 12.4 µM) | 4 (≈ 12.4 µM) | 128 (≈ 396 µM) | MICantibiotic (P. aeruginosa PAO1; chloramphenicol alone): 32 µg/mL and 16 µg/mL; MICantibiotic (A. baumannii ATCC 17978; chloramphenicol alone): 128 µg/mL and 64 µg/mL; MICchloramphenicol (MRSA ATCC 33592): 64 µg/mL; MICchloramphenicol (S. aureus ATCC 29213): 8 µg/mL and 16 µg/mL; MICchloramphenicol (MRSE 61589): 8 µg/mL and 16 µg/mL; MICchloramphenicol (MSSE 81388): 4 µg/mL and 8 µg/mL; MICchloramphenicol (E. faecalis ATCC 29212): 4 µg/mL and 8 µg/mL; MICchloramphenicol (E. faecium ATCC 27270): 8 µg/mL and 4 µg/mL
C[C@@H](O)[C@H]1C(=O)N2C(C(=O)O)=C(S[C@@H]3CN[C@H](CNS(N)(=O)=O)C3)[C@H](C)[C@H]12 [DOR, doripenem] | > 1020 | 16 (≈ 38 µM) |  |  |  |  | 
C[C@H]1c2cccc(O)c2C(=O)C2=C(O)[C@]3(O)C(=O)C(C(N)=O)=C(O)[C@@H](N(C)C)[C@@H]3[C@@H](O)[C@@H]21 [DOX, doxycycline] | 32 (≈ 72 µM) | 1020 (≈ 2300 µM) | 4 (≈ 9 µM) | > 32 | 2 (≈ 4.5 µM) |  | MIC (E. cloacae 118564 [5]): 4 mg/L (≈ 9 µM)
CN(C)[C@@H]1C(O)=C(C(N)=O)C(=O)[C@@]2(O)C(O)=C3C(=O)c4c(O)c(NC(=O)CN5CCCC5)cc(F)c4C[C@H]3C[C@@H]12 [ERC, eravacycline] | 8 (≈ 14.3 µM) | 8 (≈ 14.3 µM) | 0.5 (≈ 0.895 µM) | 1 (≈ 1.79 µM) | 1 (≈ 1.79 µM) | 0.5 (≈ 0.895 µM) | 
C[C@@H](O)[C@H]1C(=O)N2C(C(=O)O)=C(S[C@@H]3CN[C@H](C(=O)Nc4cccc(C(=O)O)c4)C3)[C@H](C)[C@H]12 [ETP, ertapenem] | > 32 | > 32 | ≤ 0.03 | ≤ 0.03 | ≤ 0.03 |  | 
C[C@@H](O)[C@H]1C(=O)N2C(C(=O)O)=C(SCCN=CN)C[C@H]12 [IMI, imipenem] | 32 (≈ 107 µM) | 32 (≈ 107 µM) | 0.25 (≈ 0.835 µM) | 0.25 (≈ 0.835 µM) | 0.25 (≈ 0.835 µM) | 32 (≈ 107 µM) | 
C[C@H]1COc2c(N3CCN(C)CC3)c(F)cc3c(=O)c(C(=O)O)cn1c23 [LEV, levofloxacin] | 256 (≈ 708 µM) | 64 (≈ 177 µM) | 1 (≈ 2.77 µM) | 32 (≈ 88.6 µM) | 0.125 (≈ 0.346 µM) | 8 (≈ 22.1 µM) | 
O=C(Nc1ccc([N+](=O)[O-])cc1Cl)c1cc(Cl)ccc1O [Niclosamide, niclosamide] |  |  |  |  |  |  | MICantibiotic (P. aeruginosa PAO1; niclosamide alone): 1024 µg/mL; MICantibiotic (A. baumannii ATCC 17978; niclosamide alone): 1024 µg/mL and > 1024 µg/mL and 512 µg/mL; MICantibiotic (E. coli ATCC 25922; niclosamide alone): > 128 µg/mL and > 256 µg/mL
CO[C@@H]1[C@@H](OC(N)=O)[C@@H](O)[C@H](Oc2ccc3c(O)c(NC(=O)c4ccc(O)c(CC=C(C)C)c4)c(=O)oc3c2C)OC1(C)C [Novobiocin, novobiocin] |  |  |  |  |  |  | MICantibiotic ([8]; novobiocin alone): 2048 µg/mL and 1024 µg/mL; MICantibiotic ([9]; novobiocin alone): 1024 µg/mL and 2048 µg/mL and > 1024 µg/mL; MICantibiotic (P. aeruginosa PAO1; novobiocin alone): 512 µg/mL and 1024 µg/mL; MICantibiotic (A. baumannii 92247; novobiocin alone): 2 µg/mL and 4 µg/mL; MICantibiotic (A. baumannii AB027 [10]; novobiocin alone): 8 µg/mL and 16 µg/mL; MICantibiotic (E. coli 94393 [11]; novobiocin alone): 128 µg/mL and 64 µg/mL; MICantibiotic (E. coli 94474 [12]; novobiocin alone): 256 µg/mL and 128 µg/mL; MICantibiotic (E. coli ATCC 25922; novobiocin alone): 32 µg/mL and 64 µg/mL; MICantibiotic (E. cloacae 118564 [13]; novobiocin alone): 256 µg/mL
CN(C)c1cc(CNCC(C)(C)C)c(O)c2c1C[C@H]1C[C@H]3[C@H](N(C)C)C(O)=C(C(N)=O)C(=O)[C@@]3(O)C(O)=C1C2=O [OMC, omadacycline] | 64 (≈ 115 µM) | 64 (≈ 115 µM) | 4 (≈ 7.19 µM) | 16 (≈ 28.7 µM) | 2 (≈ 3.59 µM) | 1 (≈ 1.8 µM) | 
CO[C@H]1/C=C/O[C@@]2(C)Oc3c(C)c(O)c4c(O)c(c(/C=N/N5CCN(C)CC5)c(O)c4c3C2=O)NC(=O)/C(C)=C\C=C\[C@H](C)[C@H](O)[C@@H](C)[C@@H](O)[C@@H](C)[C@H](OC(C)=O)[C@@H]1C [Rifampicin, rifampicin] |  |  |  |  |  |  | MICantibiotic ([8]; rifampicin alone): 16 µg/mL; MICantibiotic ([9]; rifampicin alone): 512 µg/mL and 1024 µg/mL; MICantibiotic (P. aeruginosa PAO1; rifampicin alone): 16 µg/mL and 8 µg/mL; MICantibiotic (A. baumannii 92247; rifampicin alone): 1 µg/mL and 2 µg/mL; MICantibiotic (A. baumannii AB027 [10]; rifampicin alone): 1 µg/mL; MICantibiotic (A. baumannii ATCC 17978; rifampicin alone): 1 µg/mL and 2 µg/mL; MICantibiotic (E. coli 94393 [11]; rifampicin alone): 4 µg/mL; MICantibiotic (E. coli 94474 [12]; rifampicin alone): 4 µg/mL and 8 µg/mL; MICantibiotic (E. coli ATCC 25922; rifampicin alone): 4 µg/mL and 2 µg/mL; MICantibiotic (E. cloacae 118564 [13]; rifampicin alone): 8 µg/mL; MICantibiotic (K. pneumoniae 113250 [14]): 16 µg/mL and 8 µg/mL
NC[C@H]1O[C@H](O[C@H]2[C@H](O)[C@@H](O[C@H]3O[C@H](CO)[C@@H](O)[C@H](N)[C@H]3O)[C@H](N)C[C@@H]2N)[C@H](N)C[C@@H]1O [TOB, tobramycin] | 256 (≈ 548 µM) | 1020 (≈ 2190 µM) | ≤ 0.5 | 32 (≈ 68.4 µM) | ≤ 0.5 |  | MIC (E. cloacae 118564 [5]): 1 mg/L (≈ 2.14 µM)
